Results from PubChem BioAssay AID330 (DTP/NCI, 2004).
Several values for one entry are separate records, joined by “and”; a condition that tells them apart may be missing. Equal values may be shown once. Toxic doses and inconclusive results are not listed. The calls were made as follows: active = survival T/C of 150% or more; inactive = T/C below 125% in these data.

Tested on: P388 leukemia ip, CD2F1 mice, survival T/C
Experiment: NCI In Vivo Anticancer Drug Screen. Data for tumor model P388 Leukemia (intraperitoneal) in CD2F1 (CDF1) mice
Details: endpoint: median survival time, higher = longer survival
Summary of the method: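 Mice carrying the transplanted tumor received test compound or vehicle. Survival was recorded in each group, and the value is the treated-group measurement divided by that of the vehicle-treated control group.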

[1] = dose: 7.5 mg/kg/injection, schedule: Q01DX005 (ip), vehicle: saline with Tween-80
[2] = dose: 60.0 mg/kg/injection, schedule: Q01DX005 (ip), vehicle: saline with Tween-80
[3] = dose: 120.0 mg/kg/injection, schedule: Q01DX005 (ip), vehicle: saline with Tween-80
[4] = dose: 240.0 mg/kg/injection, schedule: Q01DX005 (ip), vehicle: saline with Tween-80
[5] = dose: 50.0 mg/kg/injection, schedule: Q01DX009 (ip), vehicle: saline with Tween-80
[6] = dose: 100.0 mg/kg/injection, schedule: Q01DX009 (ip), vehicle: saline with Tween-80
[7] = dose: 200.0 mg/kg/injection, schedule: Q01DX009 (ip), vehicle: saline with Tween-80
[8] = dose: 50.0 mg/kg/injection, schedule: Q01DX005 (ip), vehicle: saline with Tween-80
[9] = dose: 100.0 mg/kg/injection, schedule: Q01DX005 (ip), vehicle: saline with Tween-80
[10] = dose: 50.0 mg/kg/injection, schedule: Q01DX005 (ip), vehicle: Klucel (hydroxypropylcellulose) (HPC)
[11] = dose: 100.0 mg/kg/injection, schedule: Q01DX005 (ip), vehicle: Klucel (hydroxypropylcellulose) (HPC)
[12] = dose: 200.0 mg/kg/injection, schedule: Q01DX005 (ip), vehicle: Klucel (hydroxypropylcellulose) (HPC)
[13] = dose: 100.0 mg/kg/injection, schedule: Q04DX003 (ip), vehicle: saline with Tween-80
[14] = dose: 200.0 mg/kg/injection, schedule: Q04DX003 (ip), vehicle: saline with Tween-80
[15] = dose: 100.0 mg/kg/injection, schedule: Q04DX003 (ip), vehicle: Klucel (hydroxypropylcellulose) (HPC)
[16] = dose: 200.0 mg/kg/injection, schedule: Q04DX003 (ip), vehicle: Klucel (hydroxypropylcellulose) (HPC)
[17] = dose: 400.0 mg/kg/injection, schedule: Q04DX003 (ip), vehicle: Klucel (hydroxypropylcellulose) (HPC)

Measured: T/C

O=C1C(=O)c2ncccc2-c2ncccc21
inactive: [1] 113 % of control | dose: 15.0 mg/kg/injection, schedule: Q01DX005 (ip), vehicle: saline with Tween-80 95 % of control

C/C(=C\c1ccccc1)C(=O)C(CN(C)C)CN(C)C
inactive: dose: 1.87 mg/kg/injection, schedule: Q01DX005 (ip), vehicle: saline 111 % of control | dose: 3.75 mg/kg/injection, schedule: Q01DX005 (ip), vehicle: saline 113 % of control | dose: 7.5 mg/kg/injection, schedule: Q01DX005 (ip), vehicle: saline 100 % of control and 113 % of control

O=C(O)COc1cccc2c(=O)cc(-c3ccccc3)oc12
inactive: dose: 50.0 mg/kg/injection, schedule: Q01DX005 (ip), vehicle: saline 102 % of control | dose: 100.0 mg/kg/injection, schedule: Q01DX005 (ip), vehicle: saline 101 % of control | dose: 200.0 mg/kg/injection, schedule: Q01DX005 (ip), vehicle: saline 99 % of control

O=C(O)CC[P+](c1ccccc1)(c1ccccc1)c1ccccc1
inactive: dose: 25.0 mg/kg/injection, schedule: Q01DX009 (ip), vehicle: water 105 % of control | dose: 50.0 mg/kg/injection, schedule: Q01DX009 (ip), vehicle: water 102 % of control | dose: 100.0 mg/kg/injection, schedule: Q01DX009 (ip), vehicle: water 105 % of control | dose: 200.0 mg/kg/injection, schedule: Q01DX009 (ip), vehicle: water 95 % of control | dose: 400.0 mg/kg/injection, schedule: Q01DX009 (ip), vehicle: water 94 % of control

COc1ccc(C2(c3ccc(OC)cc3)ON(C(c3ccccc3)c3ccccc3)C2=O)cc1
inactive: [2] 95 % of control | [3] 91 % of control | [4] 89 % of control

c1ccc2c(c1)nc1n2CC2(CO1)COc1nc3ccccc3n1C2
inactive: [5] 99 % of control | [6] 99 % of control | [7] 104 % of control

NC(CSCc1ccccc1)P(=O)(O)O (configuration not stated)
inactive: dose: 60.0 mg/kg/injection, schedule: Q01DX005 (ip), vehicle: Klucel (hydroxypropylcellulose) (HPC) 105 % of control | dose: 120.0 mg/kg/injection, schedule: Q01DX005 (ip), vehicle: Klucel (hydroxypropylcellulose) (HPC) 98 % of control | dose: 240.0 mg/kg/injection, schedule: Q01DX005 (ip), vehicle: Klucel (hydroxypropylcellulose) (HPC) 91 % of control

Cc1ccccc1N=C(CCl)Nc1ccccc1C
inactive: [8] 94 % of control | [9] 99 % of control

BOc1ccc(C)cc1CN(C)Cc1ccccc1
inactive: dose: 100.0 mg/kg/injection, schedule: Q04DX002 (ip), vehicle: Klucel (hydroxypropylcellulose) (HPC) 103 % of control | dose: 200.0 mg/kg/injection, schedule: Q04DX002 (ip), vehicle: Klucel (hydroxypropylcellulose) (HPC) 99 % of control | dose: 400.0 mg/kg/injection, schedule: Q04DX002 (ip), vehicle: Klucel (hydroxypropylcellulose) (HPC) 104 % of control

CNc1cccnc1C1OCCO1
inactive: [10] 96 % of control | [11] 102 % of control | [12] 100 % of control

O=C(NCCCl)Oc1cc(Cl)c(Cl)cc1Cl
inactive: dose: 12.5 mg/kg/injection, schedule: Q01DX005 (ip), vehicle: Klucel (hydroxypropylcellulose) (HPC) 120 % of control | dose: 25.0 mg/kg/injection, schedule: Q01DX005 (ip), vehicle: Klucel (hydroxypropylcellulose) (HPC) 111 % of control | dose: 100.0 mg/kg/injection, schedule: Q01DX001 (ip), vehicle: Klucel (hydroxypropylcellulose) (HPC) 102 % of control

CC(=O)Nc1cc(NC(C)=O)c(N=O)c(NC(C)=O)n1
inactive: dose: 50.0 mg/kg/injection, schedule: Q01DX009 (ip), vehicle: saline 100 % of control | dose: 100.0 mg/kg/injection, schedule: Q01DX009 (ip), vehicle: saline 99 % of control | dose: 200.0 mg/kg/injection, schedule: Q01DX009 (ip), vehicle: saline 91 % of control

c1ccc2c(-c3ccc(N4CCOCC4)cc3)c3ccc4ccccc4c3cc2c1
inactive: [10] 91 % of control | [11] 92 % of control | [12] 99 % of control

Cc1cccc(-n2c(N)cc(=O)[nH]c2=S)n1
inactive: dose: 25.0 mg/kg/injection, schedule: Q01DX001 (ip), vehicle: saline with Tween-80 100 % of control | dose: 50.0 mg/kg/injection, schedule: Q01DX001 (ip), vehicle: saline with Tween-80 100 % of control | dose: 100.0 mg/kg/injection, schedule: Q01DX001 (ip), vehicle: saline with Tween-80 109 % of control

BrCCN(CCBr)c1ccc2c3c(cccc13)-c1ccccc1-2
active: dose: 4.0 mg/kg/injection, schedule: Q01DX009 (ip), vehicle: saline with Tween-80 160 % of control and 163 % of control | dose: 6.0 mg/kg/injection, schedule: Q01DX009 (ip), vehicle: saline with Tween-80 178 % of control | dose: 6.25 mg/kg/injection, schedule: Q01DX009 (ip), vehicle: saline with Tween-80 154 % of control
inactive: dose: 9.0 mg/kg/injection, schedule: Q01DX009 (ip), vehicle: saline with Tween-80 117 % of control | [13] 104 % of control | [14] 104 % of control

CC(=O)c1c(Br)c2c3ccccc3c3ccccc3n2c1C
inactive: [2] 107 % of control | [3] 106 % of control | [4] 92 % of control

COc1cccc2c1C(=O)c1c(O)c3c(c(O)c1C2=O)C[C@@](O)(C(O)CO)C[C@@H]3OC1CC(NC(=O)C(F)(F)F)C(O)C(C)O1 (some centres not stated)
active: dose: 25.0 mg/kg/injection, schedule: Q01DX009 (ip), vehicle: other 151 % of control and 152 % of control

Oc1ccccc1-c1nc(-c2ccccc2)c(-c2ccccc2)[nH]1
inactive: [15] 106 % of control | [16] 101 % of control | [17] 101 % of control

COc1cc2c(cc1OC)C(CS(C)=O)Cc1cc(OC)c(OC)cc1N(C)CCC2 (configuration not stated)
inactive: [13] 93 % of control | [14] 87 % of control | dose: 400.0 mg/kg/injection, schedule: Q04DX003 (ip), vehicle: saline with Tween-80 100 % of control

C[N+]1(C)N=C([O-])N(c2ccc(Cl)cc2)C1=O
inactive: dose: 100.0 mg/kg/injection, schedule: Q04DX002 (ip), vehicle: saline 100 % of control | dose: 200.0 mg/kg/injection, schedule: Q04DX002 (ip), vehicle: saline 103 % of control | dose: 400.0 mg/kg/injection, schedule: Q04DX002 (ip), vehicle: saline 102 % of control

c1ccc2nc3nc4ccccc4nc3nc2c1
inactive: dose: 15.0 mg/kg/injection, schedule: Q01DX009 (ip), vehicle: saline with Tween-80 92 % of control | dose: 30.0 mg/kg/injection, schedule: Q01DX009 (ip), vehicle: saline with Tween-80 114 % of control | dose: 50.0 mg/kg/injection, schedule: Q01DX005 (ip), vehicle: Klucel + Tween-80 90 % of control | [5] 103 % of control | dose: 60.0 mg/kg/injection, schedule: Q01DX009 (ip), vehicle: saline with Tween-80 111 % of control | dose: 100.0 mg/kg/injection, schedule: Q01DX005 (ip), vehicle: Klucel + Tween-80 96 % of control | [6] 113 % of control | dose: 200.0 mg/kg/injection, schedule: Q01DX005 (ip), vehicle: Klucel + Tween-80 93 % of control | [7] 107 % of control

COc1ccc(-c2csc(C)n2)cc1OC
inactive: [15] 106 % of control | [16] 106 % of control | [17] 103 % of control

CC(C)=CCCC1(C)C=Cc2c(ccc3c(C)noc23)O1 (configuration not stated)
inactive: [8] 100 % of control | [9] 89 % of control | dose: 200.0 mg/kg/injection, schedule: Q01DX005 (ip), vehicle: saline with Tween-80 110 % of control

Cc1[nH]c(C(=O)NN)c(C)c1C(=O)NN
inactive: dose: 25.0 mg/kg/injection, schedule: Q01DX009 (ip), vehicle: saline with Tween-80 91 % of control | [5] 95 % of control | [6] 91 % of control

C1=CN2C(c3ccccc3)=NN(c3ccccc3)[C@@H]2c2ccccc21
inactive: dose: 1.87 mg/kg/injection, schedule: Q01DX005 (ip), vehicle: saline with Tween-80 102 % of control | dose: 3.75 mg/kg/injection, schedule: Q01DX005 (ip), vehicle: saline with Tween-80 102 % of control | [1] 103 % of control and 93 % of control
